Laboratory results: patent US20100210735A1, “Modulating the Activity of Nuclear Receptors in Order to Treat Hypoxia-Related Disorders” (UNIVERSITY OF FLORIDA RESEARCH FOUNDATION, INC., priority 2007, published 2010)
Entries after “also recorded” stand apart in the source; their conditions may differ.

Columns and labels:
[1] = biological target: ERRγ-HIF association (Homo sapiens, UniProt P62508); settings: DES (50 μM) or 4HT (10 μM); GST pulldown
Description: In vitro translated HIF proteins were mixed with GST or GST-ERR fusions and assayed for binding.
All procedures followed standard molecular biology techniques. […] For GST binding and IP, we used the following binding buffer (20 mM Tris, pH7.5, 150 mM NaCl, 0.5% NP-40, and protease inhibitor cocktail (Roche)). […] In later experiments, we added proteasome inhibitor MG132 (10 uM) into the buffer.
We examined whether mammalian HIF and ERR proteins interact with each other in vitro by the common glutathione S-transferase (GST) pulldown assay. We fused full-length cDNAs of ERRα, β, and γ to GST and generated fusion proteins in bacteria. We assayed them for binding to in vitro translated full-length HIF1α, HIF2α, and HIF1β.
These compounds were tested to determine whether they might interfere with the ERR-HT interaction.

[2] = tested on: ERRs (ERRα, ERRβ, ERRγ); settings: literature (Tremblay et al, 2001; Ariazi and Jordan, 2006); cited from earlier work
[3] = tested on: HIF-dependent reporter (HRE-Luc); assay: HIF-dependent luciferase reporter (HRE-Luc) assay in SKBR3 cells; format: cell-based, human; settings: DP (100 uM), DES (50 uM) or 4HT (10 uM)
Description: All human cancer cells were maintained in the following basal media (Invitrogen) supplemented with 10% fetal bovine serum: breast cancer cell line MDA-MB-435 in DMEM/F12, melanoma WM266 cells in McCoy's 5A, breast cancer SKBr3 in DMEM. […] The antibiotic G418 was added in the medium (800 ug/mL) for selection of stable dnERR transfectants. Anaerobic culture was achieved using GasPak Pouch System (BD Biosciences). The HIF-dependent reporter HRE-Luc was generated by inserting the two copies of synthetic HRE from PGK1 into a pGL3 luciferase vector. (Promega) Epo-Luc and PGK1-Luc were created by cloning the PCR-amplified HIF-dependent enhancer and promoter regions of Epo and PGK1, respectively, Full-length EST clones encoding ERR-α, -β, -γ, HIF-1α, -2α, -1β were used for in vitro translation (Promega TNT kit), production of GST fusions by cloning into the pGEX vector, and mammalian expression by cloning into modified pcDNA3 vectors with Flag or HA epitope tags. ERR Deletion mutants were generated by PCR. dnERR was constructed by PCR amplification of ERRβ DBD and Engrailed repression domain, followed by a three-way ligation into pcDNA3. Anti-Flag, -HA, -ERRα, and -HIF1α antibodies were obtained from Sigma, Covance, Upstate, and BD Biosciences and Novus, respectively.

[4] = tested on: hypoxic genes (VEGF, PGK1, LDHA, Eno1, Glut1) in MDA-MB-435 cells; assay: Northern blot of hypoxic gene expression in MDA-MB-435 breast cancer cells; format: cell-based, human; settings: severe hypoxia, DES (50 uM)
Excerpt: (§1) For Northern blot analysis, nylon membranes carrying total RNA samples were hybridized with probes made from cDNA fragments encoding for VEGF, PGK1, lactate dehydrogenase A(LDHA), Enolase 1 (Eno1), and Glucose transporter 1 (Glut1). The 18s rRNA and β-actin served as loading controls.
All human cancer cells were maintained in the following basal media (Invitrogen) supplemented with 10% fetal bovine serum: breast cancer cell line MDA-MB-435 in DMEM/F12, melanoma WM266 cells in McCoy's 5A, breast cancer SKBr3 in DMEM. […] The antibiotic G418 was added in the medium (800 ug/mL) for selection of stable dnERR transfectants. Anaerobic culture was achieved using GasPak Pouch System (BD Biosciences).
All procedures followed standard molecular biology techniques. […] HIFα was not stable.
The HIF-mediated hypoxic response is defined by transcriptional activation of many hypoxic genes. We asked whether inhibition of ERR was capable of blocking hypoxic-induced transcription of endogenous genes.

[5] = tested on: HIF1α; assay: Western blot analysis for HIF1α in SKBR3 cells; format: cell-based, human; settings: DP and DES
Excerpt: HIF1α was detected with anti-HIF1α antibody. The same blot was reprobed with an antitubulin antibody. Tubulin served as a loading control. All procedures followed standard molecular biology techniques.

[6] = tested on: pregnant female mice; settings: DES 500 μg/mouse; literature (Tremblay et al, 2001); cited from earlier work
[7] = tested on: hypoxic genes (VEGF, glycolytic enzymes) in SKBR3 cells; assay: Northern blot of hypoxic gene expression in SKBR3 breast cancer cells; format: cell-based, human; settings: DP (100 uM), DES (50 uM)
Excerpt: For Northern blot analysis, nylon membranes carrying total RNA samples were hybridized with probes made from cDNA fragments encoding for VEGF, PGK1, lactate dehydrogenase A(LDHA), Enolase 1 (Eno1), and Glucose transporter 1 (Glut1). The 18s rRNA and β-actin served as loading controls. […] All human cancer cells were maintained in the following basal media (Invitrogen) supplemented with 10% fetal bovine serum: breast cancer cell line MDA-MB-435 in DMEM/F12, melanoma WM266 cells in McCoy's 5A, breast cancer SKBr3 in DMEM. […] The antibiotic G418 was added in the medium (800 ug/mL) for selection of stable dnERR transfectants. Anaerobic culture was achieved using GasPak Pouch System (BD Biosciences). All procedures followed standard molecular biology techniques. […] The HIF-mediated hypoxic response is defined by transcriptional activation of many hypoxic genes.

[8] = tested on: MDA-MB-435 breast cancer xenograft; assay: Tumor xenograft experiment, human MDA-MB-435 breast cancer cells in SCID mice; format: in vivo; settings: 750 μg DES daily, oral
Description: Tumor volume was measured weekly.
Tumor xenografts were harvested at time of necropsy (after 3 weeks of treatment) and weighed. […] Scale Bars represent average tumor weight.
MDA-MB-435 cells (5×10^6) were resuspended in a mixture of 100 uL of PBS and Matrigel (BD Biosciences, Bedford, Mass.; 2:1 ratio), and injected subcutaneously into the fourth mammary gland fat pad of 6- to 8-week-old female severe combined immunodeficient (SCID) mice. […] The mice bearing tumor xenografts were randomly divided into two groups. […] Tumors were serially measured weekly with a ruler and the tumor volumes were calculated with the following formula: volume (mm^3)=width^2× length/2. After 3 weeks of treatment, the mice were euthanized. All animal studies were approved by the Institutional Animal Care and Use Committee (IACUC) at the University of Florida.
At the end of treatment, tumors were excised and analyzed.

[9] = tested on: tumor angiogenesis in MDA-MB-435 xenograft; assay: CD34 immunostaining of tumor xenografts for blood vessel density; format: in vivo, mice; settings: 750 μg DES daily, oral, after 3 weeks of treatment
Description: Tumor transplants were processed and subjected to CD34 immunostaining for blood vessels (brown staining). […] Scale bars, 65 μm. […] Microvessel density was determined by counting the number of CD34 positive blood vessels from four randomly chosen visual fields from each group of tumors. The average number in the fields was taken as the mean of vessel density of the group. Tumors were dissected at time of necropsy, weighed, and fixed in 4% paraformaldehyde in PBS overnight. Samples were dehydrated in 70% ethanol, paraffin embedded, and sectioned ([…]). Deparaffinized sections were stained for CD34 to assess blood vessel density. Briefly, samples were microwaved in sodium citrate (pH 6) for 20 min. for antigen retrieval, and treated with 3% H2O2 at room temperature for 20 min. to quench endogenous peroxidase activity. Sections were then blocked in 1.5% rabbit serum and incubated with rat anti-mouse CD34 antibody (1:100 dilution, clone MEC14.7, BioLegend), followed by biotinylated rabbit anti-rat IgG (1:200 dilution; Vector Laboratories). Detection was done with avidin-biotin-HRP complex (Vector laboratories) and di-aminobenzidin as chromogen. […] As angiogenesis is a key part of hypoxic response and is required to support tumor growth beyond a certain threshold size, we assessed tumor vascularization by performing immunohistochemical staining using anti-CD34 antibody. […]

[10] = tested on: hypoxic genes in A549 lung cancer cells; assay: Hypoxic gene expression in A549 lung cancer cells; format: cell-based, human; settings: A549 lung cancer cells treated with DP and RES
Excerpt: as §1

Sequence of ERRγ-HIF association (P62508 whole entry): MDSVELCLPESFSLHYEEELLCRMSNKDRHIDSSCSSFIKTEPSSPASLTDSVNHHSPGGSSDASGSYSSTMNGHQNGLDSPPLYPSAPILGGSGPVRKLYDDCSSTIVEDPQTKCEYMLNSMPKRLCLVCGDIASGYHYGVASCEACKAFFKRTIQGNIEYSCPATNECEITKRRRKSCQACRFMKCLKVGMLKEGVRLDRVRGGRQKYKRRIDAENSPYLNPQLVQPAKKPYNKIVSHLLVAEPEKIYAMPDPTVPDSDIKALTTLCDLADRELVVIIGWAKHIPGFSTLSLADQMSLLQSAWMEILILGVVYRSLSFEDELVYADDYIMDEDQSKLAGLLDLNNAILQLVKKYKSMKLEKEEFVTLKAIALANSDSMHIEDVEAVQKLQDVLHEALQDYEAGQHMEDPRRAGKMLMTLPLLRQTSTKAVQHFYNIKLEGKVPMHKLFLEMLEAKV
Sequence of ERRγ-HIF association (Q16665 whole entry partner): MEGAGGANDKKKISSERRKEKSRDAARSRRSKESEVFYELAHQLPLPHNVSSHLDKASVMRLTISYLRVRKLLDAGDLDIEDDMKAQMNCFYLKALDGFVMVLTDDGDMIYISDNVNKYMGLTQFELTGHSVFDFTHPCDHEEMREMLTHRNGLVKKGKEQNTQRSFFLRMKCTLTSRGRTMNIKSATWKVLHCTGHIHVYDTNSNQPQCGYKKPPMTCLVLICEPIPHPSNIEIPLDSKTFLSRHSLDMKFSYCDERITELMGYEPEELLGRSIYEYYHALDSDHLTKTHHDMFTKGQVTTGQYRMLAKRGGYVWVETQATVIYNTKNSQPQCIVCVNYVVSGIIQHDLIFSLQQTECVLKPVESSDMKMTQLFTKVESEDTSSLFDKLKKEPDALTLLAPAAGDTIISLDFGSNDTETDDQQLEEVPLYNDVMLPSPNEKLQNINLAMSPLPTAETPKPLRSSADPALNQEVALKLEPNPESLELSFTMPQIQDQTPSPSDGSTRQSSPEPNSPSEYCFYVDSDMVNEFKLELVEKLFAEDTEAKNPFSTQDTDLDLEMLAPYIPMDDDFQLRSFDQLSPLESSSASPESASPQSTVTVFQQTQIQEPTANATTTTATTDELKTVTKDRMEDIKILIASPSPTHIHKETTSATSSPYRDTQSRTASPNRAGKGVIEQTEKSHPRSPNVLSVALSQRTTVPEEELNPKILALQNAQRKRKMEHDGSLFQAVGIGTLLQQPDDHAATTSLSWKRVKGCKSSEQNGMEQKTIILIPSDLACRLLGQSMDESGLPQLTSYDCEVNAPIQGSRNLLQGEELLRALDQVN
Sequence of ERRγ-HIF association (P27540 whole entry partner): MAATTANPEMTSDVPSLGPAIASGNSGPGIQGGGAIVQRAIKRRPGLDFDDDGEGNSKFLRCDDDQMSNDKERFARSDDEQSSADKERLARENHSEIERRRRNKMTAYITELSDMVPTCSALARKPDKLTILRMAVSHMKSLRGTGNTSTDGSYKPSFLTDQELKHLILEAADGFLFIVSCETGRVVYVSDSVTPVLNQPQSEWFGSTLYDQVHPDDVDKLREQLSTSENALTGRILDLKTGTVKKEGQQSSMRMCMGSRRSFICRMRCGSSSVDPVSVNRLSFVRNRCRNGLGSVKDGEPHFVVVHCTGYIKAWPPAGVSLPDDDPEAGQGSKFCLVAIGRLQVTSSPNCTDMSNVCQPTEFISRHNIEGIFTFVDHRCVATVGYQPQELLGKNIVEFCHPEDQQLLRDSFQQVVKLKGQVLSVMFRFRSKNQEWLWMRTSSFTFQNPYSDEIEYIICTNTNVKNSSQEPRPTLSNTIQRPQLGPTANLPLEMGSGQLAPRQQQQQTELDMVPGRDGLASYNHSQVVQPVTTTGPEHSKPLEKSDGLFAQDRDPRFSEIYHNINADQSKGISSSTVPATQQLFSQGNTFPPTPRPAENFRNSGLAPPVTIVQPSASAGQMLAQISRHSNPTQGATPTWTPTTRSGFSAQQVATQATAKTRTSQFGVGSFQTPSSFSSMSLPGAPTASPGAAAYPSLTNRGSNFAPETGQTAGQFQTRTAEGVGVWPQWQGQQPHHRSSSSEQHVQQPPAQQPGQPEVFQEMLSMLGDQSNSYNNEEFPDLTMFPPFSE

Row | Compound | effect on ERRγ-HIF association [1] | activity on ERRs / ERR-coactivator interaction [2] | activation of the HIF-dependent reporter by DP-induced HIF stabilization [3] | transcriptional induction of HIF target genes [4] | HIF1α protein stabilization by DP [5] | effect in pregnant female mice [6] | transcriptional induction of HIF target genes [7] | tumor volumes and growth rate versus vehicle-treated control ([8]; 3 weeks, SCID mice) | tumor xenograft growth upon treatment ([8]; SCID mice) | tumor weight at end of treatment versus vehicle-treated mice ([8]; after 3 weeks of treatment) | micro vascular density in tumors (CD34 positive blood vessels) [9] | hypoxia-induced gene transcription [10] | hypoxia-induced gene transcription ([10]; listed as Resveratrol)
1 | 4-hydroxytamoxifen [4HT] | resistant; also recorded: insensitive | selectively inhibits ERRγ | Lack of effects | – | – | – | – | – | – | – | – | – | –
2 | CC/C(=C(/CC)c1ccc(O)cc1)c1ccc(O)cc1 [DES, diethylstilbestrol] | – | antagonist of all three ERRs | severely impaired; also recorded: attenuates HIF activity | largely abolished | stabilized normally | placental defects | largely abolished | dramatic reduction | essentially stopped growing | about 3 times lighter | clear reduction; also recorded: few blood vessels; also recorded: reduced | – | –
3 | Oc1ccc(C=Cc2cc(O)cc(O)c2)cc1 [resveratrol] | – | capable of dissociating coactivator complexes from all three ERRs, albeit at higher concentrations than DES | – | – | – | – | – | – | – | – | – | manifested inhibitory activities | reduced hypoxic gene expression
